Biological target: T1, SUMO E1 SAE1 V315F mutant (Homo sapiens, UniProt Q9UBE0+Q9UBT2, V315F)
T1 construct: GST (N); made in house; host or cells: Escherichia coli BL21
T1 sequence (Q9UBE0 1-346 V315F): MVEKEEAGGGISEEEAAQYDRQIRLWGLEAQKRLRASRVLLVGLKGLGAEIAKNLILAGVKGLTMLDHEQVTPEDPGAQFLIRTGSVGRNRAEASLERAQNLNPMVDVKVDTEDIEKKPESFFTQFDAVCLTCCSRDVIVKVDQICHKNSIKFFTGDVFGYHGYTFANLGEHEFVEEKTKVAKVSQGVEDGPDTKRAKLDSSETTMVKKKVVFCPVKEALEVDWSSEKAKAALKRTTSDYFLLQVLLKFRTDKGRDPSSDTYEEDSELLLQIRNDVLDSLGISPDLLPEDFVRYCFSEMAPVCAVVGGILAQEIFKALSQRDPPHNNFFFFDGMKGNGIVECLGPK
T1 sequence (Q9UBT2 1-640): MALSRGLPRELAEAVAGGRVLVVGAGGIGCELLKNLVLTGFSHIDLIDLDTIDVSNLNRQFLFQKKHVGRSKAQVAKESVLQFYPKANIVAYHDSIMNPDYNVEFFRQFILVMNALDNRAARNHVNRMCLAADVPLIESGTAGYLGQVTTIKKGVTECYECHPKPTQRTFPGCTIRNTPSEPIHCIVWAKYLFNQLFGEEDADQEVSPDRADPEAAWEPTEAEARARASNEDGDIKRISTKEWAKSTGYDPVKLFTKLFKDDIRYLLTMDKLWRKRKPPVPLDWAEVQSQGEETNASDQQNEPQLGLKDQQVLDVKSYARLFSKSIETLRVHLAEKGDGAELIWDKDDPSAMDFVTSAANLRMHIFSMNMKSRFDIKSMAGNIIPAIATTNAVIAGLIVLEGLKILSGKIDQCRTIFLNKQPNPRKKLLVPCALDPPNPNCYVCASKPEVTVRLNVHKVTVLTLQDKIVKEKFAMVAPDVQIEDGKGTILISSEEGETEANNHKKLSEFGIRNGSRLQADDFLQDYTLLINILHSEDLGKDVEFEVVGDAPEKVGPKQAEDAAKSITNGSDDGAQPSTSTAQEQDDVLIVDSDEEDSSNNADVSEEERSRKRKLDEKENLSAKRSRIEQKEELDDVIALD
Assay: SUMO E1 activity assays with SAE1 V315F mutant
Format: biochemical
Method: Figure 3 SUMO-specific activating enzyme, E1, is a direct target of N106. Mechanism of action of N106 on individual steps in the SUMOylation cascade in vitro. (a) Inorganic pyrophosphate resulting from ATP hydrolysis in E1-catalysed SUMO-1 activation in the presence of increasing concentration of N106 compound was assessed by fluorogenic pyrophosphate assay kit. Recombinant human SUMO-specific E1 (0.05 μM), human Ubc9 (0.25 μM), human SUMO-1 (12.5 μM) and ATP (1 mM) were incubated with increasing concentration of N106 for 30 min at 37 °C and quantified using a fluorescence microplate reader. (b) The SAE2-SUMO-1 conjugation was detected followed by western blotting with anti-SAE2 antibodies. SUMO E1 (0.05 μM), SUMO-1 (12.5 μM) and ATP (1 mM) were co-incubated with increasing concentration of N106 for 30 min at 37 °C. The reaction mixtures were separated on 7.5% SDS–PAGE gel under non-reducing conditions. (c) E2-SUMO-1 conjugation was visualized by western blotting with anti-Ubc9 antibody. SUMO E1 (0.05 μM), Ubc9 (0.25 μM), SUMO-1 (12.5 μM) and ATP (1 mM) were incubated without or with increasing concentration of N106 for 30 min at 37 °C. […] (e) ATP hydrolytic activity of WT and mutant SUMO E1 are determined. (f) The E1-SUMO-1 conjugation was detected followed by western blot analysis with anti-SAE2 antibody. *The SAE2-SUMO-1 conjugated bands. […]

ATP hydrolysis activity with N106, compared with wild-type protein (V315F mutant): significantly lower
SUMO E1-SUMO and SUMO E2-SUMO conjugations in the presence of N106, compared with WT (V315F mutant SAE1): weaker
Compound: COc1ccc(-c2nnc(Nc3nc4c(OC)cccc4s3)o2)cc1 [Compound N106, N-(4-methoxybenzo[d]thiazol-2-yl)-5-(4-methoxyphenyl)-1,3,4-oxadiazol-2-amine]

Reference: paper PMC4467461, “Small-molecule activation of SERCA2a SUMOylation for the treatment of heart failure” (Nature Communications, 2015)
